Measured values reported in patent US5863899A (priority 1994, dated 1999).
Read-outs that look alike come from different tables or passages of the source. Square brackets hold non-standard residues; d marks the D form. Peptide text beside a SMILES is read from it. * marks the point of attachment. X13 = COc1ccc2c3c1O[C@H]1C(NC(=O)CNC(=O)CCSC4CC(=O)N(CCCCCCN5C(=O)CC(*)C5=O)C4=O)CC[C@@]4(O)[C@@H](C2)N(C)CC[C@]314; X9 = COc1ccc2c3c1O[C@H]1C(NCCSC4CC(=O)N(CCCCCCN5C(=O)CC(*)C5=O)C4=O)CC[C@@]4(O)[C@@H](C2)N(C)CC[C@]314; X1 = CN1CC[C@]23c4c5ccc(O)c4O[C@H]2C(NCCSC2CC(=O)N(CCCCCCN4C(=O)CC(*)C4=O)C2=O)CC[C@@]3(O)[C@H]1C5; X4 = CC(C)(C)c1ccc(C(C)(C)C(=O)Oc2ccc(S(=O)(=O)CCCC(=O)OCCCCCCN3C(=O)CC(*)C3=O)cc2)cc1; X7 = COc1ccc2c(c1)c(CC(=O)OCCCCCCN1C(=O)CC(*)C1=O)c(C)n2C(=O)c1ccc(Cl)cc1; Oic = O=C(O)[C@@H]1C[C@@H]2CCCC[C@@H]2N1; Hyp = O=C(O)[C@@H]1C[C@@H](O)CN1; dTic = O=C(O)[C@H]1Cc2ccccc2CN1; 2Thi = N[C@@H](Cc1cccs1)C(=O)O; X20 = O=C1CC(*)C(=O)N1CCCCCCO

Legend:
[1] = molecular target: T1, purified human neutrophil elastase (HNE) (Homo sapiens, UniProt P08246); assay: neutrophil elastase inhibition with chromogenic substrate MOS-AAPV-pNA; assay type: biochemical
T1 sequence (P08246 30-247 limits assumed): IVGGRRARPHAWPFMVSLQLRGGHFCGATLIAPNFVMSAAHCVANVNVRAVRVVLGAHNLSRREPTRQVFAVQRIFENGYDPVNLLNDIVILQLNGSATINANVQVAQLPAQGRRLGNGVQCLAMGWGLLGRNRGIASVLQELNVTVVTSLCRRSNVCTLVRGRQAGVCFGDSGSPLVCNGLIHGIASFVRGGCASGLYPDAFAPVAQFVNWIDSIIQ

BK2-receptor [2] = molecular target: T2, BK2-receptor (Rattus norvegicus, UniProt P25023)
T2 sequence (P25023 1-396): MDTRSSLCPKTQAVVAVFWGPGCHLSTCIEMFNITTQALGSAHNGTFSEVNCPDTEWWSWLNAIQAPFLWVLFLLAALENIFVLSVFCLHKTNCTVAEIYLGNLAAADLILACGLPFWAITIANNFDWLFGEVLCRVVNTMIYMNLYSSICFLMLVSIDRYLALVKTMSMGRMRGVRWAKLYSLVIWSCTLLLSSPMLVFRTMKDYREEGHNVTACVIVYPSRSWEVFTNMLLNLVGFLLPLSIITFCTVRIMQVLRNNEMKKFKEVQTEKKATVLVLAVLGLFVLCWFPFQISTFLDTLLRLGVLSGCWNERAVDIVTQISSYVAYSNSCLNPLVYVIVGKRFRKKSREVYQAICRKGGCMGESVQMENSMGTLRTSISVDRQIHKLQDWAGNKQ

in vitro = assay: in vitro
Description: Unfortunately, there are no established animal models that can be employed to assess combined BKAn and NEI activity in vivo. Therefore, in order to assess the potential for in vivo hydrolysis of the intact heterodimer, an in vitro "surrogate" system was employed wherein the parent heterodimer (CP-0502) was incubated with human plasma and the resulting metabolites analyzed by reverse phase HPLC.
CP-0502 was added to freshly obtained normal human plasma and allowed to incubate at 37° C. for varying amounts of time. At the designated time the samples were treated with acidified (0.1N HCl) acetonitrile in order to precipitate the plasma proteins. Aliquots (75 ul) of the supernatents were then analyzed on a Vydac C-18 reverse phase HPLC column using 24% to 80% acetonitrile gradient in 0.1% TFA. The eluent was monitored at 214 nm.

BK2-receptor [3] = molecular target: T2, BK2-receptor; assay: cell-based
[4] = system: rat lung parenchymal strips (cyclooxygenase dependent contraction); assay: rat lung parenchymal strips challenged with arachidonic acid; assay type: cell-based; conditions: contraction in response to exogenously applied arachidonic acid
From the text: As mentioned previously, for the COI to work it may need to be dissociated from the BKAn so as to allow for its intracellular penetration. Therefore, in order to evaluate the functional activity of a BKAn/COI heterodimer, CP-0460 was exposed to rat lung parenchymal strips which were then challenged with arachidonic acid. This tissue is known to contain both non-specific esterase activity as well as to convert arachidonic acid to thromboxane (via a cyclooxygenase dependent pathway) which is then ultimately responsible for the smooth muscle contraction observed in this assay.

[5] = system: mice injected in the hind limb foot pad with formalin; assay: mouse formalin test (model of inflammatory and neurogenic pain); assay type: in vivo; conditions: for narcotic / behavioral effects in the formalin test: oxymorphone: highest doses 0.9 and 3.0 umoles/kg, CP-0494: over several hours
Description: In order to test the activity of these compounds in vivo, a model of inflammatory and neurogenic pain was used. This model measures the behavioral responses of mice injected in the hind limb foot pad with 50 ul of formalin. Control mice (open circles) show a characteristic bi-phasic response to the injected formalin wherein there is a short lasting initial response followed by a quiescent period which is then followed by a sustained period of hind limb licking. The licking behavior is interpreted to mean that the limb is irritated and painful. The greater the time spent licking, the more painful the stimulus.

[6] = freshly obtained normal human plasma; conditions: 37° C., up to 180 minutes
mu-opiate receptor = mu-opiate receptor (Cavia porcellus, UniProt A0ACM8Q262); assay: electrically stimulated guinea pig ileum assay; assay type: cell-based; conditions: in vitro mu-opiate receptor agonist activity
Chain of mu-opiate receptor (A0ACM8Q262 1-400): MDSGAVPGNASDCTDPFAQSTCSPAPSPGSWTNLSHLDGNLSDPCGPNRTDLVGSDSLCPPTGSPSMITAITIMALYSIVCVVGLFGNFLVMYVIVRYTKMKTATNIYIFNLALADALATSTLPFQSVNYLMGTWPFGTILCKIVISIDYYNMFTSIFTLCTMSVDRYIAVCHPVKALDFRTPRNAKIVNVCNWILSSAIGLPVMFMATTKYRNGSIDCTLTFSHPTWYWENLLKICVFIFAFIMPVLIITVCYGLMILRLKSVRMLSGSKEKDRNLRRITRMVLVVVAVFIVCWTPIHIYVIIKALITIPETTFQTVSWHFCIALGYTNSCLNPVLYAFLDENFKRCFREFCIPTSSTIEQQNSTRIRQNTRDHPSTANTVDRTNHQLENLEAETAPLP

[7] = Table II, MOS-AAPV-pNA 0.5 mM, pH 7.5, 25 C

Compound: CC(C)(C)c1ccc(C(C)(C)C(=O)Oc2ccc(CCCC(=O)O)cc2)cc1 [CE-1218, 4-(3'-carboxy-propyl)phenyl 4-tert-butylphenylisobutyrate]
- Ki ([1]; Table II, MOS-AAPV-pNA 0.5 mM, pH 7.5, 25 C, read-out: Ki^ss (HNE)): 10.5 nM
- pA2 -Rat Uterus (BK2-receptor [2]; Table II): inactive

Compound: CC(C)C[C@H](NC(=O)[C@@H](Cc1ccccc1)NC(=O)[C@H](CSC1CC(=O)N(CCCCCCOC(=O)CCCS(=O)(=O)c2ccc(OC(=O)C(C)(C)c3ccc(C(C)(C)C)cc3)cc2)C1=O)NC(=O)[C@H](Cc1ccccc1)NC(=O)CNC(=O)[C@@H]1C[C@@H](O)CN1C(=O)[C@@H]1CCCN1C(=O)[C@H](CCCNC(=N)N)NC(=O)[C@H](N)CCCNC(=N)N)C(=O)N[C@@H](CCCNC(=N)N)C(=O)O (stereo partly shown) [CP-0502] (H-[dR]RP[Hyp]GFC(X4)[dF]LR-OH)
- half-life (in vitro; human, plasma (freshly obtained normal human plasma)): ~1.88 h
- hydrolysis in human plasma (HPLC) (in vitro; normal human plasma, 37° C., to CP-0487 and its des-Arg9 derivative): readily hydrolyzed
- Ki [1]: 6.6 nM
- Kb (BK2-receptor [3]): 31.6 nM

Compound: COc1ccc2c(c1)c(CC(=O)OCCCCCCN1C(=O)CC(SC[C@H](NC(=O)[C@H](Cc3ccccc3)NC(=O)CNC(=O)[C@@H]3C[C@@H](O)CN3C(=O)[C@@H]3CCCN3C(=O)[C@H](CCCNC(=N)N)NC(=O)[C@H](N)CCCNC(=N)N)C(=O)N[C@H](Cc3ccccc3)C(=O)N[C@@H](CC(C)C)C(=O)N[C@@H](CCCNC(=N)N)C(=O)O)C1=O)c(C)n2C(=O)c1ccc(Cl)cc1 (stereo partly shown) [CP-0460] (H-[dR]RP[Hyp]GFC(X7)[dF]LR-OH)
- Kb (BK2-receptor [3]): ~15.8 nM

Compound: COc1ccc2c(c1)c(CC(=O)O)c(C)n2C(=O)c1ccc(Cl)cc1 [indomethacin]
- pA2, standard rat uterus assay (BK2-receptor [2]; intact compound): no effect on this assay at any concentration
- log dose ratio shift [4]: 0.998+/-0.425

Compound: N=C(N)NCCC[C@@H](N)C(=O)N[C@@H](CCCNC(=N)N)C(=O)N1CCC[C@H]1C(=O)N1C[C@H](O)C[C@H]1C(=O)NCC(=O)N[C@@H](Cc1cccs1)C(=O)N[C@@H](CS)C(=O)N1Cc2ccccc2C[C@@H]1C(=O)N1[C@H](C(=O)N[C@@H](CCCNC(=N)N)C(=O)O)C[C@@H]2CCCC[C@@H]21 [CP-0347, D R-R-P-J-G-Thi-C-D Tic-Oic-R] (H-[dR]RP[Hyp]G[2Thi]C[dTic][Oic]R-OH)
- Kb (BK2-receptor [3]): 0.316 nM

Compound: COc1ccc2c3c1O[C@H]1C(NCCSC4CC(=O)N(CCCCCCN5C(=O)CC(SC[C@H](NC(=O)[C@H](Cc6ccccc6)NC(=O)CNC(=O)[C@@H]6C[C@@H](O)CN6C(=O)[C@@H]6CCCN6C(=O)[C@H](CCCNC(=N)N)NC(=O)[C@H](N)CCCNC(=N)N)C(=O)N[C@H](Cc6ccccc6)C(=O)N[C@@H](CC(C)C)C(=O)N[C@@H](CCCNC(=N)N)C(=O)O)C5=O)C4=O)CC[C@@]4(O)[C@@H](C2)N(C)CC[C@]314 (stereo partly shown) [CP-0477] (H-[dR]RP[Hyp]GFC(X9)[dF]LR-OH)
- Kb (BK2-receptor [3]): 12.6 nM

Compound: COc1ccc2c3c1O[C@H]1C(NC(=O)CNC(=O)CCSC4CC(=O)N(CCCCCCN5C(=O)CC(SC[C@H](NC(=O)[C@H](Cc6ccccc6)NC(=O)CNC(=O)[C@@H]6C[C@@H](O)CN6C(=O)[C@@H]6CCCN6C(=O)[C@H](CCCNC(=N)N)NC(=O)[C@H](N)CCCNC(=N)N)C(=O)N[C@H](Cc6ccccc6)C(=O)N[C@@H](CC(C)C)C(=O)N[C@@H](CCCNC(=N)N)C(=O)O)C5=O)C4=O)CC[C@@]4(O)[C@@H](C2)N(C)CC[C@]314 (stereo partly shown) [CP-0488] (H-[dR]RP[Hyp]GFC(X13)[dF]LR-OH)
- Kb (BK2-receptor [3]): 6.31 nM

Compound: CN1CC[C@]23c4c5ccc(O)c4O[C@H]2C(=O)CC[C@@]3(O)[C@H]1C5 [oxymorphone]
- pA2 -Rat Uterus (BK2-receptor [2]; Table I, BK2-receptor activity): inactive
- effect on licking behavior (both phases) in the formalin test ([5]; 50 ul formalin in hind limb foot pad): reduces both phases of the licking behavior
- dose at which both phases of the pain response are blocked ([5]; mouse formalin test): 0.9 µmol/kg
- narcotic / behavioral effects in the formalin test [5]: significant behavioral obtundation resulting in catalepsy and frank respiratory depression

Compound: CC(C)C[C@H](NC(=O)[C@@H](Cc1ccccc1)NC(=O)[C@H](CSC1CC(=O)N(CCCCCCO)C1=O)NC(=O)[C@H](Cc1ccccc1)NC(=O)CNC(=O)[C@@H]1C[C@@H](O)CN1C(=O)[C@@H]1CCCN1C(=O)[C@H](CCCNC(=N)N)NC(=O)[C@H](N)CCCNC(=N)N)C(=O)N[C@@H](CCCNC(=N)N)C(=O)O (stereo partly shown) [CP-0487] (H-[dR]RP[Hyp]GFC(X20)[dF]LR-OH)
- Ki^ss (HNE) [1, 7]: inactive
- Kb (BK2-receptor [3]): 3.98 nM

Compound: CC(C)C[C@H](NC(=O)[C@@H](Cc1ccccc1)NC(=O)[C@H](CSC1CC(=O)N(CCCCCCN2C(=O)CC(SCCNC3CC[C@@]4(O)[C@H]5Cc6ccc(O)c7c6[C@@]4(CCN5C)[C@H]3O7)C2=O)C1=O)NC(=O)[C@H](Cc1ccccc1)NC(=O)CNC(=O)[C@@H]1C[C@@H](O)CN1C(=O)[C@@H]1CCCN1C(=O)[C@H](CCCNC(=N)N)NC(=O)[C@H](N)CCCNC(=N)N)C(=O)N[C@@H](CCCNC(=N)N)C(=O)O (stereo partly shown) [CP-0494] (H-[dR]RP[Hyp]GFC(X1)[dF]LR-OH)
- narcotic / behavioral effects in the formalin test [5]: no observable narcotic effects
- Kb (BK2-receptor [3]): 3.98 nM

Compound: CC(C)C[C@H](NC(=O)[C@@H](Cc1ccccc1)NC(=O)[C@H](CS)NC(=O)[C@H](Cc1ccccc1)NC(=O)CNC(=O)[C@@H]1C[C@@H](O)CN1C(=O)[C@@H]1CCCN1C(=O)[C@H](CCCNC(=N)N)NC(=O)[C@H](N)CCCNC(=N)N)C(=O)N[C@@H](CCCNC(=N)N)C(=O)O [CP-0126, D R-R-P-J-G-F-C-D F-L-R] (HELM PEPTIDE1{[dR].R.P.[Hyp].G.F.C.[dF].L.R}$$$$V2.0)
- Ki^ss (HNE) [1, 7]: inactive

Compound: D R-R-P-J-G-F-C-D F-L-R
- cleaved bond [6]: Leu8-Arg9
- fragment found [6]: CP-0487

Compound: COc1ccc2c3c1O[C@H]1C(=O)CC[C@@]4(O)[C@@H](C2)N(C)CC[C@]314 [oxycodone]
- pA2 -Rat Uterus (BK2-receptor [2]; Table I, BK2-receptor activity): inactive
- activity in guinea pig ileum assay (mu-opiate receptor): neither oxycodone nor the heterodimers derived from oxycodone (CP-0477 and CP-0488) showed any activity
